These are literature values, as cited in PMC5580352 (Journal of medicinal chemistry, 2017).

For the data set the following is noted: 1 week of administration of 20 mg/kg.

As to `CCCC[S+]([O-])c1sc2nc(-c3cccs3)cc(-c3ccccc3)c2c1N` (stereo not shown) [Compound 1, 2-(butylsulfinyl)-4-phenyl-6-(thiophen-2-yl)thieno[2,3-b]pyridin-3-amine], the adverse effects entry was “no adverse effects on weight, activity, blood counts or blood chemistry”.
